From US11090391B2, “Protein nanocages with enhanced mucus penetration for targeted tissue and intracellular delivery” (The Johns Hopkins University, priority 2016, dated 2021)

Tests used:
3LL cells [1] = assay: Intracellular trafficking, confocal microscopy; type: cell-based, mouse; details: 2 hours after addition
[2] = test system: 3LL-Luc orthotopic proximal lung cancer; assay: In vivo anti-cancer efficacy, orthotopic proximal lung cancer model; design: species or system mouse; details: single intratracheal dose 0.25 mg/kg
Excerpt: To evaluate the efficacy of PEG-FTn-DOX for treating lung airway cancer, an aggressive orthotopic mouse model was established of proximal lung cancer in inbred mice with intact host immunity. The model was established via intratracheal intubation of cancer cells into the tracheal and bronchial epithelium of lung airways (DuPage M, et al., Nature protocols, 4:1064-1072 (2009)), which was relevant to small cell lung cancer and squamous-cell lung cancer. Briefly, female C57BL/6 mice (6-8 weeks) were inoculated with 2.5×10^4 3 LL-Luc cells in 50 μL of DMEM medium via intratracheal intubation using a 22 G×1″ Safelet catheter (Exel International). Three days after the inoculation, bioluminescence signal in the lung was observed using a Xenogen IVIS Spectrum optical imaging system. […] The tumor growth was monitored at various time points using an IVIS imaging system and the bioluminescence signal in lung at different time points was quantitatively analyzed by the Living Image® (Caliper Life Sciences) software. The survival of mice was recorded daily, and data was analyzed by Kaplan-Meier survival curve.
The luciferase activity of 3LL-Luc was visualized and quantified by a Xenogen IVIS Spectrum optical imaging system. In brief, mice were anesthetized with 2% isoflurane in O2 and received intraperitoneal injection of D-luciferin solution in PBS at a dose of 150 mg/kg. Serial images were acquired between 5 and 20 minutes after the D-luciferin administration, and the bioluminescence signal intensity was quantified by the Living Image® software.

[3] = test system: 3LL cells stably expressing firefly luciferase (3LL-Luc); assay: In vitro cytotoxicity, luciferase activity; type: cell-based, mouse; details: 24 hour treatment
Protocol: Cytotoxicity was evaluated by optical imaging of luciferase expression. 3LL cells stably expressing firefly luciferase (3LL-Luc) were treated with various concentrations of PEG-FTn-DOX and DOX for 24 hour. After adding a D-luciferin solution, the bioluminescence imaging was acquired by a Xenogen IVIS Spectrum optical imaging system (Caliper Life Sciences). The luciferase activity was quantified to determine IC50 by fitting the data with nonlinear regression using GraphPad Prism.

[4] = test system: 3LL-based tumor spheroids; assay: Penetration of DOX formulations in tumor spheroids; type: cell-based, mouse; details: 10 μM DOX concentration
Protocol: (§1) Multicellular tumor spheroid models consisting of different cancer cell lines were prepared by modifying a previously reported protocol (Friedrich J, et al, Nature Protocols, 4:309-324 (2009)). Briefly, 50 μL DMEM medium containing 1.5% agarose (wt/vol) was plated onto each well of a 96-well microtiter plate under sterile conditions. After the agarose solidifies, the plates were stored at room temperature until use. For the penetration study, 5×10^3 cells were seeded onto the agarose-plated 96-well plates. After 4-5 days culture to obtain multicellular tumor spheroids (400-500 μm in diameter), the tumor spheroids were carefully transferred into glass bottom dishes. […] After the 2-hour incubation, the cells were observed using confocal microscopy with Z-stack imaging at ˜10 μm intervals. […] The 3D images of spheroids were reconstructed by ZEN microscopy software (Carl Zeiss). For analyzing the penetration distance, the radial intensity distribution profile was determined using a custom-made MATLAB code where αtumor is the radius of individual spheroids and r is the radial distance from the spheroid center (r/αtumor=0 and 1 indicate the center and edge of the tumor spheroid, respectively). […] Quantification analysis of signal intensity was performed with ImageJ software (NIH).
Multicellular tumor spheroids were prepared and post-treatment analyzed as described in Example 4.

3LL cells [5] = assay: Cell uptake / TfR 1-dependent binding of Cy5-labeled FTn formulations, flow cytometry; type: cell-based, mouse
Protocol: (§2) See detailed procedures as described in Example 4.
Subsequently, cells were incubated with Vibrant® DiO cell labeling solution (Life technologies) for 10 minutes following manufacturer's protocol (sub-cellular localization at cell membranes & lipids). After three times washing with PBS, the cells were fixed with Z-fix solution (Anatech) for 15 min, followed by 1.5 μg/mL DAPI staining at room temperature.
(§3) After washing with cold PBS, cells were analyzed using an AccuriC6 flow cytometer (BD Biosciences). […] The data was fitted to a binding curve via non-linear regression method using GraphPad Prism (GraphPad Software).

3LL cell spheroids = assay: Penetration of Cy5-labeled FTn in multicellular tumor spheroids; type: cell-based, mouse; details: for distribution in spheroids (3D-reconstructed confocal images): 40 nM, 2-hour incubation; for mean fluorescence signal intensity in spheroids compared to FTn: FIG. 4A
Protocol: as §2, §1

[6] = PEG surface density, fluorometric determination; type: physicochemical; details: for PEG2k density: reassembled FTn by % PEGylated protein
Protocol: The solution was placed on a rotary incubator for 4 hours and then concentrated by centrifugation (Amicon Ultra-0.5 mL 30 K MWCO; Millipore). […] The density was fluorometrically determined (Suk J S, et al., Advanced Drug Delivery Reviews, 99(Pt A):28-51, Epub 2015).
The ratio [Γ/SA] of total unconstrained PEG surface coverage area [Γ] to total particle surface area [SA] determines the surface PEG conformation: low-density mushroom and high-density brush regimes when [Γ/SA]<1 and [Γ/SA]≥1, respectively (Xu Q, et al., ACS Nano, 9. 9217-9227 (2015); Auguste D T, Biomaterials, 27, 2599-2608 (2006)). Briefly, the surface area occupied by one unconstrained PEG chain was calculated by random-walk statistics and given by a sphere of diameter ξ: ξ=0.76 m^1/2[Å], where m is MW of PEG chain, and the surface area occupied by one PEG molecule can be determined by π(ξ/2)^2. Thus, the surface area occupied by unconstrained PEG of MWs 10, 5 and 2 kDa is 45, 23 and 9 nm^2, respectively. The total unconstrained PEG surface area coverage [Γ] was then calculated by multiplying the area occupied at the surface per PEG chain by the total number of PEG chains per protein nanocage.

[7] = test system: orthotopic 3LL lung cancer; details: mouse, in vivo
Protocol: The mice were sacrificed 2 hour post-administration, and the entire lungs were isolated and frozen slices were prepared.

[8] = test system: TfR 1-positive lung cancer cells; assay: Uptake of FTn/FTn-PEG2k by panel of cell lines; type: cell-based; details: C2C12, NCI-H69, H69-AR, SW210.5, A549, NCI-H460, NCI-H1975, PC 9
Protocol: as §3
TfR 1 expression was determined by western blot analysis with anti-TfR 1 antibody (Ab) (BD Pharmingen) in various cell lines in vitro, including mouse Lewis lung carcinoma (3LL) cells, mouse myoblast (C2C12, a TfR 1-negative cell line as the negative control), human small cell lung cancer cells (NCI-H69, H69-AR, and SW210.5), and human non-small cell lung cancer cells (A549, NCI-H460, NCI-H1975, and PC 9). The expression was also determined when 3LL, A549, PC9, and SW210.5 cells were incubated in 20% oxygen and 1% oxygen (i.e. hypoxic condition).

[9] = Airway distribution after intranasal administration; type: in vivo, mouse; details: for retention in lung airways (overall fluorescence intensity): compared to non-PEGylated FTn; for coverage of mouse tracheal surfaces: intranasal, 10 minutes after administration
Excerpt: All experiments were approved by the Institutional Animal Care and Use Committee.
Female CF-1 mice (6-8 week) were anesthetized under continuous flow of isoflurane (2% in oxygen). […] Ten minutes after administration, mice were sacrificed and the entire lungs (including trachea) were removed and frozen in Tissue-Tek optimal cutting temperature compound (Sakura Finetek). Tracheas were sectioned on a Leica Cryostat (Leica Biosystems) with a section thickness of 10 μm. The sections were stained with Prolong Gold antifade with DAPI (Life technologies), and fluorescence images of the sections were obtained using a Zeiss confocal microscope. To quantify the particle distribution, the acquired images were analyzed by following an image-based analysis method that was previously reported (Mastorakos P, et al., Proc Nat Acad Sci USA, 112(28):8720-5 (2015)). Briefly, at least 10 fluorescence images at 10× magnification were taken for the lungs harvested from individual animals. The images were quantified with ImageJ software. An average coverage and total particles in airways were determined for each mouse, and then these values were averaged over a group of n=4 mice.

[10] = Physicochemical properties (hydrodynamic diameter, ζ-potential, drug loading)
Protocol: The DOX conjugated PEG-FTn is denoted as FTn/FTn-PEG2k/DOX. […] The mixture was incubated for 1 hour and 1.5 mg EDC was added to activate a carboxyl group of each DOX-linker conjugate. The resultant compounds were analyzed using high-performance liquid chromatography (HPLC, Varian Inc.) equipped with a C18 reverse phase column. […] The final product was extensively dialyzed (10 kDa MWCO; Thermo Scientific) and purified with a PD-10 column.

A549 = assay: Cell uptake of FTn, flow cytometry; type: cell-based, human; details: TfR 1-mediated
Protocol: as §3

[11] = Hydrodynamic diameter by gel-filtration / size exclusion chromatography; type: physicochemical
Protocol: Briefly, the protein standards with known HD (Bio-Rad), including M1 (thyroglobulin; 669 kDa, 18.8 nm HD), M2 (γ-globulin; 158 kDa, 11.9 nm HD), M3 (ovalbumin; 44 kDa, 6.13 nm HD), M4 (myoglobin; 17 kDa, 3.83 nm HD) and M5 (vitamin B12; 1.35 kDa, 1.48 nm HD), were analyzed using GFC and subsequently a standard curve of HD vs retention time was established.

[12] = Colloidal stability by agarose gel electrophoresis (PBS, 10% human plasma); type: physicochemical; details: 0.5% agarose gel, 10% human plasma 1 hour 37° C.
Protocol: Nanocages reassembled in phosphate buffered saline (PBS) with varying % of PEGylated protein were analyzed by electrophoresis within a 0.5% agarose gel to determine any aggregation.

[13] = biological target: transferrin receptor 1 (TfR 1) on mouse Lewis lung carcinoma (3LL) cells (mouse) (UniProt Q62351)

Compound: COc1cccc2c1C(=O)c1c(O)c3c(c(O)c1C2=O)C[C@@](O)(C(=O)CO)C[C@@H]3O[C@H]1C[C@H](N)[C@H](O)[C@H](C)O1 [DOX, doxorubicin, reference compound]
- intracellular localization of DOX (3LL cells [1]): primarily localized in the cell nuclei
- median survival [2]: 18 days
- IC50 [3]: 480 nM
- distribution in spheroids (3D confocal images) [4]: remained primarily at the periphery of the spheroids

Compound: FTn-Cy5: FTn labeled with fluorescent dye Cy5, ~23 dye molecules per FTn
- uptake in the presence of anti-TfR 1 antibody (3LL cells [5]; 10-fold molar excess anti-TfR 1 Ab): significantly reduced uptake
- penetration in presence of excess unlabeled FTn (3LL cell spheroids; 10-fold molar excess, 1 hour): reduced significantly

Compound: FTn/FTn-PEG2k: hybrid nanocage formed with 50% ferritin and 50% PEGylated ferritin using PEG2k
- tumor cell uptake compared to non-PEGylated FTn (3LL cells [5]; 3LL cells, 2 kDa PEG, non-PEGylated FTn = 100%): more than 80%
- PEG surface density ([6]; hybrid nanocage, fluorometric measurement): ~0.24±0.03 PEG/nm^2
- PEG2k density [6]: 0.21 #/nm^2
- localization in orthotopic lung cancer [7]: found preferentially within the tumor tissue
- uptake by TfR 1-positive cells [8]: efficiently taken up
- retention in lung airways (overall fluorescence intensity) [9]: retained at higher levels
- coverage of mouse tracheal surfaces [9]: 77±8%
- colocalization with lysosomes (3LL cells [1]): colocalized with lysosomes
- Hydrodynamic diameter [10]: 13.6 ± 1.3 nm
- ζ-potential [10]: −4.1 ± 1.1 mV
- distribution in spheroids (3D-reconstructed confocal images) (3LL cell spheroids): uniformly distributed throughout the entire spheroids including the core
- mean fluorescence signal intensity in spheroids in presence of anti-TfR 1 Ab (3LL cell spheroids; 10-fold molar excess, 1 hour): significantly decreased
- mean fluorescence signal intensity in spheroids compared to FTn (3LL cell spheroids): indistinguishable

Compound: FTn/FTn-PEG5k: hybrid FTn with 1:1 molar ratio of FTn and FTn conjugated with 5 kDa PEG
- retention in lung airways (overall fluorescence intensity) [9]: retained at higher levels
- coverage of mouse tracheal surfaces [9]: 80±8%
- distribution in spheroids (3D-reconstructed confocal images) (3LL cell spheroids): primarily near the periphery of tumor spheroids
- mean fluorescence signal intensity in spheroids compared to FTn (3LL cell spheroids): significantly lower intensity

Compound: FTn/FTn-PEG10k: hybrid FTn with 1:1 molar ratio of FTn and FTn conjugated with 10 kDa PEG
- uptake compared to the uptake of FTn (3LL cells [5]; FIG. 3C): significantly reduced
- coverage of mouse tracheal surfaces [9]: 74±8%
- distribution in spheroids (3D-reconstructed confocal images) (3LL cell spheroids): primarily near the periphery of tumor spheroids
- mean fluorescence signal intensity in spheroids compared to FTn (3LL cell spheroids): significantly lower intensity

Compound: FTn: ferritin heavy-chain nanocages self-assembled from recombinant human ferritin heavy chain, without PEG
- uptake by A549 (A549): taken up
- PEG2k density [6]: 0 #/nm^2
- diameter from size exclusion chromatography ([11]; pH 2.0, broad peak): 1.8-5.4 nm
- diameter from size exclusion chromatography ([11]; pH 7.4, single peak): 13.2 nm
- coverage of mouse tracheal surfaces [9]: 50±9%
- distribution in airways ([9]; mucus-covered large airways (trachea)): sparsely distributed in airways
- aggregation during electrophoresis (colloidal stability) [12]: aggregated and were stuck in the wells
- distribution in spheroids (3D-reconstructed confocal images) (3LL cell spheroids): uniformly distributed throughout the entire spheroids including the core
- mean fluorescence signal intensity in spheroids in presence of anti-TfR 1 Ab (3LL cell spheroids; 10-fold molar excess, 1 hour): significantly decreased

Compound: hybrid nanocage FTn/FTn-PEG2k (50% ferritin and 50% ferritin PEGylated with 2 kDa PEG) (ligand)
- relative uptake (%) by 3LL cells, non-PEGylated FTn = 100% (% of the uptake of non-PEGylated FTn) [13]: > 80
